The results in this text go back to article PMC8571951, “An activity‐based bioprobe differentiates a novel small molecule inhibitor from a LOXL2 antibody and provides renewed promise for anti‐fibrotic therapeutic strategies” (Clinical and Translational Medicine, 2021).

Assay type in all cases: biochemical
One experiment deals with T1, rh LOXL2 (Homo sapiens, UniProt Q9Y4K0).
T1 sequence (Q9Y4K0 26-774): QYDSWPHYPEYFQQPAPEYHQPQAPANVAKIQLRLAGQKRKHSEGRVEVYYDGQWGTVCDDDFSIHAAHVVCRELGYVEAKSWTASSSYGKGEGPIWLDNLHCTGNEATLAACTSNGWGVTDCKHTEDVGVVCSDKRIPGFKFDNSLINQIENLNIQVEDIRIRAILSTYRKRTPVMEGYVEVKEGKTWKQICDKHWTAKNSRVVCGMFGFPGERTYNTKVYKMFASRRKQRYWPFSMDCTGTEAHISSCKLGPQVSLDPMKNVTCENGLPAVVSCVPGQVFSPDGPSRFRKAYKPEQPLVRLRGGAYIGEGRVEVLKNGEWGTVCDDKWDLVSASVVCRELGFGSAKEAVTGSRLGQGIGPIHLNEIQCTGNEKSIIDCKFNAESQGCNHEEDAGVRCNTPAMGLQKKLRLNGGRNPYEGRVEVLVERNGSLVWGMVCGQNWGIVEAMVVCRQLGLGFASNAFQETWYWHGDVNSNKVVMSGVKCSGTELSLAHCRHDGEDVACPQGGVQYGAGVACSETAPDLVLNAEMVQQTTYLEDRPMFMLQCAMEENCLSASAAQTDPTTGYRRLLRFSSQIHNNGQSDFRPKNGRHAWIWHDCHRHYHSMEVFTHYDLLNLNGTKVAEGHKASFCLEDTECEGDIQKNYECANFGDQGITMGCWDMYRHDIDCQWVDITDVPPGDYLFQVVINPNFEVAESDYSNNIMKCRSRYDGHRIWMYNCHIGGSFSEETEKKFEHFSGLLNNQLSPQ
Put plainly: Jump dilution assay, rh LOXL2. The text has this: (§1) FIGURE 1 Characteristics of the activity‐based probe (ABP) PXS‐5878. (A) Chemical structure of PXS‐5878, with functional subunits denoted with different colours. The fluoroallylamine moiety (blue) was designed to interact with the lysine tyrosylquinone (LTQ) co‐factor within the lysyl oxidase active sites. An extended linker (green) was incorporated to provide optimal separation between the reactive functional group and the tag, avoiding unfavourable steric hindrance. Biotin was selected as a tag, with higher sensitivity found to be achieved using a double tag (red), resulting in PXS‐5878 as the preferred ABP. (B) Concentration‐dependent inhibition of recombinant human (rh) lysyl oxidase‐like 1‐4 (LOXL1‐4) and native bovine LOX in a standard Amplex Red assay with 30 min pre‐incubation; n = 3–4 independent experiments, standard error of mean (SEM). Native bovine LOX was used as a surrogate for human LOX as both enzymes have similar pharmacology for fluoroallylamines.[2], [9] (C) Irreversible nature of PXS‐5878 enzyme inhibition confirmed using a jump dilution assay. Enzyme (rh LOXL1, rh LOXL2 or LOXL3) was pre‐incubated with 10 × IC50 of PXS‐5878 for 30 min, then diluted 100x and remaining activity assessed by Amplex Red assay. […] Each value is an average of three experiments. (D) Schematic representation of the assay development to detect lysyl oxidase activity by PXS‐5878 using a direct enzyme‐linked assay with lysyl oxidases as the target analyte. HRP: horseradish peroxidase; TMB: 3,3′,5,5′‐tetramethylbenzidine, a chromogenic substrate. […]
For fluoroallylamine-based inhibitors, replacement of fluorine with hydrogen (leading to the corresponding des-fluoro structures) results in a drop in potency and a switch from irreversible to reversible inhibition. […] (B) For PXS-5878, removal of the fluoro moiety in a simplified analogue results in a significant drop in potency for LOXL2, meaning (ir)reversibility cannot be accurately measured.

The next experiment deals with T2, LOXL3 (Homo sapiens, UniProt P58215).
T2 sequence (P58215 26-753): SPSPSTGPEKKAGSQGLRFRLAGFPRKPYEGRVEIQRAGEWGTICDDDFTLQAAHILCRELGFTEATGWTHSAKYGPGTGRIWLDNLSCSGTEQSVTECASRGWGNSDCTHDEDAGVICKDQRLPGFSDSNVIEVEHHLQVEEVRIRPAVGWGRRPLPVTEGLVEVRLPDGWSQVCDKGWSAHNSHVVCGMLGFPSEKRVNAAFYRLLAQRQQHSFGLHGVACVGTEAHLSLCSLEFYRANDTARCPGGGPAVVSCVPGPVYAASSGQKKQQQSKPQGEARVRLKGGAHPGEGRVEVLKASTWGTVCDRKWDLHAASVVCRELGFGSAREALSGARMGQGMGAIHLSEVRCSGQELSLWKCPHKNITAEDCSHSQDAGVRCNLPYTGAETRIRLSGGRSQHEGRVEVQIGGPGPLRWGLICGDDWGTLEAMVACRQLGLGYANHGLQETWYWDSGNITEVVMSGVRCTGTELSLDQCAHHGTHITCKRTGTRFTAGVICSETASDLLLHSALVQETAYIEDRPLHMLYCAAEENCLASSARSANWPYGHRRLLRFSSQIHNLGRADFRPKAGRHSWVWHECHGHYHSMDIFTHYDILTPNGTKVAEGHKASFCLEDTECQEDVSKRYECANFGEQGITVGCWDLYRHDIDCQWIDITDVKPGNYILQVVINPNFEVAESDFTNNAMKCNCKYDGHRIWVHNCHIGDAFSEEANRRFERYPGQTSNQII
As to the kind of experiment: Jump dilution assay, LOXL3. The following applies: 10 × IC50 for 30 min, diluted 100x.
From the text: as §1, with “experiments.” for “experiments. (D) Schematic representation of the assay development to detect lysyl oxidase activity by PXS‐5878 using a direct enzyme‐linked assay with lysyl oxidases as the target analyte. HRP: horseradish peroxidase; TMB: 3,3′,5,5′‐tetramethylbenzidine, a chromogenic substrate.”

In another experiment the target is T3, rh LOXL1 (Homo sapiens, UniProt Q08397).
T3 sequence (Q08397 96-574): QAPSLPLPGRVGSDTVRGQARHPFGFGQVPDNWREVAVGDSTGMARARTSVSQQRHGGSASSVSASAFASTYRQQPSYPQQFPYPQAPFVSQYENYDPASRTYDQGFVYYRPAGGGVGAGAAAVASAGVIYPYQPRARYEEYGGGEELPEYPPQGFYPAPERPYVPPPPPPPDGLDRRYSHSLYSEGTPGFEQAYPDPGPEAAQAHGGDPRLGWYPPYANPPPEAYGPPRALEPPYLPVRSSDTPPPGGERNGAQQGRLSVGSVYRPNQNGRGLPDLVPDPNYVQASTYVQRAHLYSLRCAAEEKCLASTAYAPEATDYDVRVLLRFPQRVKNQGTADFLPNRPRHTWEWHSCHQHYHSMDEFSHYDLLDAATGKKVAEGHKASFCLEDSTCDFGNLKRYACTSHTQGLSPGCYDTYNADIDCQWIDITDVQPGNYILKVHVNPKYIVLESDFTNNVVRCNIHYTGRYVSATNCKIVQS
As to the kind of experiment: Jump dilution assay, rh LOXL1. Conditions: 10 × IC50 for 30 min, diluted 100x.
From the text: as §1, with “experiments.” for “experiments. (D) Schematic representation of the assay development to detect lysyl oxidase activity by PXS‐5878 using a direct enzyme‐linked assay with lysyl oxidases as the target analyte. HRP: horseradish peroxidase; TMB: 3,3′,5,5′‐tetramethylbenzidine, a chromogenic substrate.”

Regarding `CC(C)c1c(Cc2ccc(S(C)(=O)=O)nc2)c2ncccc2n1CC=CCN` [des‐fluoro‐PXS‐5338], the “Mode of inhibition (reversible/irreversible) of LOXL2” value at rh LOXL2 was “reversible inhibitor”.
Consider `NC/C=C(\F)CS(=O)(=O)c1cccc(Cn2cc(-c3cc(OCCCc4cn(CCCCC[C@@H]5SC[C@@H]6NC(=O)N[C@@H]65)nn4)cc(OCCCc4cn(CCCCC[C@@H]5SC[C@@H]6NC(=O)N[C@@H]65)nn4)c3)nn2)c1` [PXS‐5878], for which the “Recovery of enzyme activity after jump dilution” value on LOXL3 is reported as “Little to no recovery in enzyme activity”; at rh LOXL1, “Little to no recovery in enzyme activity”; at rh LOXL2 (rh LOXL2, 10 × IC50 for 30 min, diluted 100x), “Little to no recovery in enzyme activity”.
